# Data from patent US7189720B2 (H. Lundbeck A/S, priority 1999, dated 2007).
# Target: T1, human Y5 receptor (Homo sapiens, UniProt Q15761)
# T1 construct: expressed in transfected cells; host or cells: mouse fibroblast LM(tk-) cells, e.g. L-hY5-7 (ATCC CRL-11995)
# T1 sequence (Q15761 1-445): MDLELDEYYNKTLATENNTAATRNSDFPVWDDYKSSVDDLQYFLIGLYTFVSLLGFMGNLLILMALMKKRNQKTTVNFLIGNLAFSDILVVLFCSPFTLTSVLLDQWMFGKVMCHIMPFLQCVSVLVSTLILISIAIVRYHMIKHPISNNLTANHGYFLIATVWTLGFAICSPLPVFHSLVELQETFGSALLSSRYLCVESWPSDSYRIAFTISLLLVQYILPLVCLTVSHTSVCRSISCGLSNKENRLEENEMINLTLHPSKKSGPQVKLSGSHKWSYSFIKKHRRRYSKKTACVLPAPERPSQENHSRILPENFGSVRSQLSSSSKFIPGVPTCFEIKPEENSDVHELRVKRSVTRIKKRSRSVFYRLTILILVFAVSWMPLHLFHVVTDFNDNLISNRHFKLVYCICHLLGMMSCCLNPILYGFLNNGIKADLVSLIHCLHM
# Experiment: Radioligand binding to membranes, cloned human Y5 receptor
# Details: Table 1; read-out: Ki (nM) hNPY-5
row,SMILES,Ki [nM]
1,"CC(C)Nc1nc(NCC2CCC(CNS(=O)(=O)c3cccc4ccccc34)CC2)nc(NC(C)C)n1 (stereo not shown) [Example 4, N1-{[4-({[4,6-Di(isopropylamino)-1,3,5-triazin-2-yl]amino}methyl)cyclohexyl]methyl}-1-naphthalenesulfonamide]",23
2,"CC(C)Nc1nc(NCCC#N)nc(NCC2CCC(CNS(=O)(=O)c3cccc4ccccc34)CC2)n1 (stereo not shown) [Example 10, N1-[4-([4-[(2-cyanoethyl)amino]-6-(isopropylamino)-1,3,5-triazin-2-yl]aminomethyl)cyclohexyl]methyl-1-naphthalenesulfonamide]",81
3,"CC(C)Nc1nc(NCCO)nc(NCC2CCC(CNS(=O)(=O)c3cccc4ccccc34)CC2)n1 (stereo not shown) [Example 11, N1-[4-([4-[(2-hydroxyethyl)amino]-6-(isopropylamino)-1,3,5-triazin-2-yl]aminomethyl)cyclohexyl]methyl-1-naphthalenesulfonamide]",35
4,"CC(C)Nc1nc(NCCN(C)C)nc(NCC2CCC(CNS(=O)(=O)c3cccc4ccccc34)CC2)n1 (stereo not shown) [Example 14, N1-{[4-({[4-{[2-(dimethylamino)ethyl]amino}-6-(isopropylamino)-1,3,5-triazin-2-yl]amino}methyl)cyclohexyl]methyl}-1-naphthalenesulfonamide]",194
5,"CC(C)Nc1nc(NCCCn2ccnc2)nc(NCC2CCC(CNS(=O)(=O)c3cccc4ccccc34)CC2)n1 (stereo not shown) [Example 15, N1-[4-([4-[3-(1H-1-imidazolyl)propyl]amino-6-(isopropylamino)-1,3,5-triazin-2-yl]aminomethyl)cyclohexyl]methyl-1-naphthalenesulfonamide]",83
6,"COc1ccc(CCNc2nc(NCC3CCC(CNS(=O)(=O)c4cccc5ccccc45)CC3)nc(NC(C)C)n2)cc1 (stereo not shown) [Example 16, N1-({4-[({4-(isopropylamino)-6-[(4-methoxyphenethyl)amino]-1,3,5-triazin-2-yl}amino)methyl]cyclohexyl}methyl)-1-naphthalenesulfonamide]",313
7,"CC(C)Nc1nc(NCC2CCC(CNS(=O)(=O)c3cccc4ccccc34)CC2)nc(N(C)C)n1 (stereo not shown) [Example 17, N1-{[4-({[4-(dimethylamino)-6-(isopropylamino)-1,3,5-triazin-2-yl]amino}methyl)cyclohexyl]methyl}-1-naphthalenesulfonamide]",27
8,"CCN(C)c1nc(NCC2CCC(CNS(=O)(=O)c3cccc4ccccc34)CC2)nc(NC(C)C)n1 (stereo not shown) [Example 18, N1-[4-([4-[ethyl(methyl)amino]-6-(isopropylamino)-1,3,5-triazin-2-yl]aminomethyl)cyclohexyl]methyl-1-naphthalenesulfonamide]",32
9,"CCN(CC)c1nc(NCC2CCC(CNS(=O)(=O)c3cccc4ccccc34)CC2)nc(NC(C)C)n1 (stereo not shown) [Example 19, N1-[4-([4-(diethylamino)-6-(isopropylamino)-1,3,5-triazin-2-yl]aminomethyl)cyclohexyl]methyl-1-naphthalenesulfonamide]",53
10,"COC[C@@H]1CCCN1c1nc(NCC2CCC(CNS(=O)(=O)c3cccc4ccccc34)CC2)nc(NC(C)C)n1 (stereo partly drawn) [Example 21, N1-(4-[(4-(isopropylamino)-6-[(2S)-2-(methoxymethyl)tetrahydro-1H-1-pyrrolyl]-1,3,5-triazin-2-ylamino)methyl]cyclohexylmethyl)-1-naphthalenesulfonamide]",71
11,"CC(C)Nc1nc(NCC2CCC(CNS(=O)(=O)c3cccc4ccccc34)CC2)nc(N2CCCCC2)n1 (stereo not shown) [Example 22, N1-{[4-({[4-(isopropylamino)-6-piperidino-1,3,5-triazin-2-yl]amino}methyl)cyclohexyl]methyl}-1-naphthalenesulfonamide]",38
12,"CC(C)Nc1nc(NCC2CCC(CNS(=O)(=O)c3cccc4ccccc34)CC2)nc(N2CCCCC2C)n1 (stereo not shown) [Example 23, N1-[4-([4-(isopropylamino)-6-(2-methylpiperidino)-1,3,5-triazin-2-yl]aminomethyl)cyclohexyl]methyl-1-naphthalenesulfonamide]",68

# Stronger by Ki, values ahead:
row,Ki [nM],SMILES
1,7,"CCNc1nc(NCC2CCC(CNS(=O)(=O)c3cccc4ccccc34)CC2)nc(NC(C)C)n1 (stereo not shown) [Example 2, N1-[4-([4-(ethylamino)-6-(isopropylamino)-1,3,5-triazin-2-yl]aminomethyl)cyclohexyl]methyl-1-naphthalenesulfonamide]"
2,12,"C=CCNc1nc(NCC2CCC(CNS(=O)(=O)c3cccc4ccccc34)CC2)nc(NC(C)C)n1 (stereo not shown) [Example 3, N1-{[4-({[4-(Allylamino)-6-(isopropylamino)-1,3,5-triazin-2-yl]amino}methyl)cyclohexyl]methyl}-1-naphthalenesulfonamide]"
3,18,"CCCNc1nc(NCC2CCC(CNS(=O)(=O)c3cccc4ccccc34)CC2)nc(NC(C)C)n1 (stereo not shown) [Example 5, N1-[4-([4-(isopropylamino)-6-(propylamino)-1,3,5-triazin-2-yl]aminomethyl)cyclohexyl]methyl-1-naphthalenesulfonamide]"
4,22,"CCCCNc1nc(NCC2CCC(CNS(=O)(=O)c3cccc4ccccc34)CC2)nc(NC(C)C)n1 (stereo not shown) [Example 6, N1-[4-([4-(butylamino)-6-(isopropylamino)-1,3,5-triazin-2-yl]aminomethyl)cyclohexyl]methyl-1-naphthalenesulfonamide]"
5,22,"CC(C)Nc1nc(NCC2CCC(CNS(=O)(=O)c3cccc4ccccc34)CC2)nc(NC2CCC2)n1 (stereo not shown) [Example 7, N1-[4-([4-(cyclobutylamino)-6-(isopropylamino)-1,3,5-triazin-2-yl]aminomethyl)cyclohexyl]methyl-1-naphthalenesulfonamide]"
6,9,"CC(C)Nc1nc(NCC2CCC(CNS(=O)(=O)c3cccc4ccccc34)CC2)nc(NC2CC2)n1 (stereo not shown) [Example 8, N1-[4-([4-(cyclopropylamino)-6-(isopropylamino)-1,3,5-triazin-2-yl]aminomethyl)cyclohexyl]methyl-1-naphthalenesulfonamide]"
7,6,"CCCCCNc1nc(NCC2CCC(CNS(=O)(=O)c3cccc4ccccc34)CC2)nc(NC(C)C)n1 (stereo not shown) [Example 9, N1-[4-([4-(isopropylamino)-6-(pentylamino)-1,3,5-triazin-2-yl]aminomethyl)cyclohexyl]methyl-1-naphthalenesulfonamide]"
8,18,"COCCNc1nc(NCC2CCC(CNS(=O)(=O)c3cccc4ccccc34)CC2)nc(NC(C)C)n1 (stereo not shown) [Example 12, N1-(4-[(4-(isopropylamino)-6-[(2-methoxyethyl)amino]-1,3,5-triazin-2-ylamino)methyl]cyclohexylmethyl)-1-naphthalenesulfonamide]"
9,22,"COCCCNc1nc(NCC2CCC(CNS(=O)(=O)c3cccc4ccccc34)CC2)nc(NC(C)C)n1 (stereo not shown) [Example 13, N1-(4-[(4-(isopropylamino)-6-[(3-methoxypropyl)amino]-1,3,5-triazin-2-ylamino)methyl]cyclohexylmethyl)-1-naphthalenesulfonamide]"
10,19,"CC(C)Nc1nc(NCC2CCC(CNS(=O)(=O)c3cccc4ccccc34)CC2)nc(N2CCCC2)n1 (stereo not shown) [Example 20, N1-[4-([4-(isopropylamino)-6-tetrahydro-1H-1-pyrrolyl-1,3,5-triazin-2-yl]aminomethyl)cyclohexyl]methyl-1-naphthalenesulfonamide]"
